Test results taken from ChEMBL document CHEMBL1129865, “Synthesis, evaluation, and crystallographic analysis of L-371,912: A potent and selective active-site thrombin inhibitor” (Bioorg Med Chem Lett, 1997).

Columns and labels:
[1] = Concentration required to double the activated partial thromboplastin time in human plasma was determined; assay type: functional
Rattus norvegicus [2] = assay: Efficacy by observing the number of occulation in rat when a dose of 6 ug/Kg/min iv. administration; 3/6; assay type: functional
Serine protease 1 = biological target: T1, Serine protease 1 (Bos taurus, UniProt P00760); assay: In vitro inhibition against bovine trypsin was determined
T1 sequence (P00760 whole entry): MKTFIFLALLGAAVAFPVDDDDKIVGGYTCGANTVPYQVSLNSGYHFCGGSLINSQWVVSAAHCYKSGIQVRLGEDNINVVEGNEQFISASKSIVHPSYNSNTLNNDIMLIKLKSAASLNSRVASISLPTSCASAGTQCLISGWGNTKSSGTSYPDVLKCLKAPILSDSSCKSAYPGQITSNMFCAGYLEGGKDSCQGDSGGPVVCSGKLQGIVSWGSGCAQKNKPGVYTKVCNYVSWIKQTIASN

Rattus norvegicus [3] = assay: Efficacy by observing the number of occulation in rat when a dose of 6 ug/Kg/min iv. administration; 1/6; assay type: functional

| Ki (Serine protease 1) | Structure (SMILES) | APPTT [1] | Occulations (Rattus norvegicus [2]) | Occulations (Rattus norvegicus [3]) |
| --- | --- | --- | --- | --- |
| 1150 nM | CNC(=O)C(=O)[C@@H](NC(=O)[C@@H]1CCCN1C(=O)[C@@H](Cc1ccccc1)NC)[C@H]1CC[C@H](N)CC1 | 2 µM | 3 | – |
| – | CN[C@H](Cc1ccccc1)C(=O)N1CCC[C@H]1C(=O)NC[C@H]1CC[C@H](N)CC1 | 1.1 µM | – | 1 |
